Experimental data as given in ChEMBL document CHEMBL5331121, “Preferred Conformation-Guided Discovery of Potent and Orally Active HIF Prolyl Hydroxylase 2 Inhibitors for the Treatment of Anemia” (J Med Chem, 2023).

Key:
Egl nine homolog 1 = Egl nine homolog 1 (Homo sapiens, UniProt Q9GZT9); experiment: Binding affinity to […] PHD2 (181 to 426 residues) (unknown origin) by fluorescence polarization assay
[1] = Metabolic stability in rat liver microsomes assessed as clearance at 1 uM preincubated for 5 mins followed by NADPH addition and measured upto 60 mins by LC-MS/MS analysis; type: ADME, Microsome; settings: time < 65 min, read-out: CLH

Egl nine homolog 1, sequence (Q9GZT9 whole entry, the tested form may be a part): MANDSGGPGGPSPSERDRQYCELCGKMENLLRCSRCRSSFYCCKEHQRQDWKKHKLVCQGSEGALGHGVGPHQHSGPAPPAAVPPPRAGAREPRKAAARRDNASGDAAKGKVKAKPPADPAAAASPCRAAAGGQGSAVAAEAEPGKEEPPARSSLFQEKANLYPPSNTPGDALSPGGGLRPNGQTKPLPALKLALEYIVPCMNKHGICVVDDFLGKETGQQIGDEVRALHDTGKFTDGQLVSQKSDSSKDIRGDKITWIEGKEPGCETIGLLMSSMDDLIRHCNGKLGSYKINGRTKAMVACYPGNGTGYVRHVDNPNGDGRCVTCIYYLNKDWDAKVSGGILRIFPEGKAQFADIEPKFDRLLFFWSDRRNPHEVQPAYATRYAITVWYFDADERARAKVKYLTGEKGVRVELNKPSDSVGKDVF

SMILES	IC50 (Egl nine homolog 1)	microsomal CLint at 1 µM [1]
COc1ccc(C(=O)N2CCC(c3cnc(C(=O)NCC(=O)O)c(O)c3)CC2)cc1	0.0541 µM	
O=C(O)CNC(=O)c1ncc(C2CCN(C(=O)c3ccc(F)cc3)CC2)cc1O	0.0675 µM	
O=C(O)CNC(=O)c1ncc(C2CCN(C(=O)CNc3ccc(C(F)(F)F)cc3)CC2)cc1O	0.0434 µM	5.6 µL/min/mg
O=C(O)CNC(=O)c1ncc(C#CCOc2ccc(Cl)cc2)cc1O [DDO-3055]	0.0156 µM	
